US20240360151A1 (SANOFI, priority 2023, published 2024)

Columns and labels:
NLRP3 inflammasome = biological target: T1, NLRP3 inflammasome (Homo sapiens, UniProt Q96P20); assay: IL-1β secretion assay (NLRP3 IC50) in LPS-primed, nigericin-activated THP-1 cells, HTRF; format: cell-based; settings: monocytic THP-1 cells; LPS 10 ng/mL 3 h priming, then compound + nigericin 10 μM 2 h; relative IC50, 10 concentrations, geometric mean
T1 construct: endogenous in cells; host or cells: THP-1 monocytic cells
T1 sequence (Q96P20 whole entry): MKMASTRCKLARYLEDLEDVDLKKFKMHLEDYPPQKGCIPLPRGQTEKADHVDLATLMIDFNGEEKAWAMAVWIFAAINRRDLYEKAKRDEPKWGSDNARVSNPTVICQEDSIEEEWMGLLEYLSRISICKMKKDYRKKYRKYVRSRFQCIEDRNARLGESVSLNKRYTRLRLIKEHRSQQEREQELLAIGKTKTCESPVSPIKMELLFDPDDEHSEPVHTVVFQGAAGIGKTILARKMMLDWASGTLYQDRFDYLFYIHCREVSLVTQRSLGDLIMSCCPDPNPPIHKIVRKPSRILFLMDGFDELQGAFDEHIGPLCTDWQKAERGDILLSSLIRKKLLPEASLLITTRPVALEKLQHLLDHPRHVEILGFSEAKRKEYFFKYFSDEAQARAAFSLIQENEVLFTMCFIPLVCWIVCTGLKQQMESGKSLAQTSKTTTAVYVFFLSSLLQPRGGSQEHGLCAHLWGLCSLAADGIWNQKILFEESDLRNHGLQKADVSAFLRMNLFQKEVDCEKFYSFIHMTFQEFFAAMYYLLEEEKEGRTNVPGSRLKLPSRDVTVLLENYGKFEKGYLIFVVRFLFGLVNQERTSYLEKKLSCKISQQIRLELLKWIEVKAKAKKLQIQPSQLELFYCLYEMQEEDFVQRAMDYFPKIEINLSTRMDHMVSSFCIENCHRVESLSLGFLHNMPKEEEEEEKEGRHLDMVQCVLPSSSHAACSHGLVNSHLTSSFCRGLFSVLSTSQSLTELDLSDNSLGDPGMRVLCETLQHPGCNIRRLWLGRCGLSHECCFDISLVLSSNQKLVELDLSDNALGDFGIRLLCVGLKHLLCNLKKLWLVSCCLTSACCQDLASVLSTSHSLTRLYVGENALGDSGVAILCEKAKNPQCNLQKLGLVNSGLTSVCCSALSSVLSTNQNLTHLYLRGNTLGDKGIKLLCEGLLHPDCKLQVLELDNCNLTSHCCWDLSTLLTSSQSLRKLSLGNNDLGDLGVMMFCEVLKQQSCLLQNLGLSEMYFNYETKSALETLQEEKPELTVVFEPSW
Procedure, shortened: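 IL-1β in supernatant read by HTRF after 2 h co-incubation of compound (0.1% DMSO, 10 concentrations, 1:3 series) with nigericin at 10 μM final, following 3 h LPS (10 ng/mL) priming of THP-1 monocytes at 37° C. Inhibition normalised to unactivated and no-compound controls; geometric-mean relative IC50 from 4-parameter logistic model.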

[1] = tested on: NF-kB pathway (TNF-α secretion by THP-1 cells); assay: TNF-α secretion assay in LPS-stimulated THP-1 cells, Lumit immunoassay; format: cell-based, human; settings: Homo sapiens, THP-1, 3 h, monocytic THP-1 cells, LPS 10 ng/mL, relative IC50, 10 concentrations, geometric mean
Procedure, shortened: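 TNF-α release was quantified directly in the cell plate by Lumit immunoassay after a 3-h, 10 ng/mL LPS trigger of compound-treated THP-1 cells (RPMI, 5% FBS). Percent inhibition versus no-compound and unstimulated controls fed a 4-parameter logistic fit over 10 concentrations, giving geometric-mean relative IC50.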

SMILES	IC50 (NLRP3 inflammasome)	IC50 [1]
Cc1cc(Cl)cc(O)c1-c1ccc(N2CCO[C@@H](CNC(=O)C(C)C)C2)nn1 [Example 285, N-[[(2S)-4-[6-(4-chloro-2-hydroxy-6-methylphenyl)pyridazin-3-yl]morpholin-2-yl]methyl]-2-methylpropanamide]	65 nM	> 10000 nM
Cc1cc(C)c(-c2ccc(N3C[C@@H](CO)O[C@H](C)C3)nn2)c(O)c1 [Example 359, 2-[6-[(2S,6R)-2-(hydroxymethyl)-6-methyl-morpholin-4-yl]pyridazin-3-yl]-3,5-dimethyl-phenol]	98 nM	> 10000 nM
Cc1ccc(-c2nnc(N3CCO[C@H](CO)C3)cc2C(C)C)c(O)c1 [Example 74, 2-[6-[(2S)-2-(hydroxymethyl)morpholin-4-yl]-4-isopropyl-pyridazin-3-yl]-5-methyl-phenol]	411 nM	> 10000 nM
Cc1cc(C(F)(F)F)cc(O)c1-c1nnc(N2C[C@@H](O)CC2=O)cc1C(F)F [Example 372, (4S)-1-[5-(difluoromethyl)-6-[2-hydroxy-6-methyl-4-(trifluoromethyl)phenyl]pyridazin-3-yl]-4-hydroxy-pyrrolidin-2-one]	94 nM	> 10000 nM
CC(=O)NC[C@@H]1COCCN1c1ccc(-c2c(C)cc(C)cc2O)nn1 [Example 129, N-[[(3R)-4-[6-(2-hydroxy-4,6-dimethyl-phenyl)pyridazin-3-yl]morpholin-3-yl]methyl]acetamide]	665 nM	> 10000 nM
CC(=O)NC[C@H]1CCCN(c2ccc(-c3c(C)cc(C(F)(F)F)cc3O)nn2)C1 [Example 167, N-[[(3R)-1-[6-[2-hydroxy-6-methyl-4-(trifluoromethyl)phenyl]pyridazin-3-yl]-3-piperidyl]methyl]acetamide]	309 nM	> 10000 nM
CC(=O)N1CC[C@@H]2OCCN(c3ccc(-c4c(C)cc(Cl)cc4O)nn3)[C@@H]2C1 (racemic) [Example 222, 1-[rac-(4aR,8aS)-4-[6-(4-chloro-2-hydroxy-6-methyl-phenyl)pyridazin-3-yl]-3,4a,5,7,8,8a-hexahydro-2H-pyrido[4,3-b][1,4]oxazin-6-yl]ethanone]	42 nM	> 10000 nM
Cc1cc(Cl)cc(O)c1-c1ccc(N2CCOc3cc(O)ccc32)nn1 [Example 193, 4-[6-(4-chloro-2-hydroxy-6-methyl-phenyl)pyridazin-3-yl]-2,3-dihydro-1,4-benzoxazin-7-ol]	534 nM	9830 nM
Oc1cc(Cl)cc(Cl)c1-c1ccc(N2CCC3(CC(O)C3)C2)nn1 (stereo not shown) [Example 42, 6-[6-(2,4-dichloro-6-hydroxy-phenyl)pyridazin-3-yl]-6-azaspiro[3.4]octan-2-ol]	134 nM	> 10000 nM
Cc1cc(C)c(-c2ccc(N3CCCc4ccccc43)nn2)c(O)c1 [Example 272, 2-[6-(3,4-dihydro-2H-quinolin-1-yl)pyridazin-3-yl]-3,5-dimethyl-phenol]	2340 nM	6580 nM
CN(C)C[C@H]1CN(c2ccc(-c3c(O)cc(Cl)cc3Cl)nn2)CCO1 [Example 39, 3,5-dichloro-2-[6-[(2S)-2-[(dimethylamino)methyl]morpholin-4-yl]pyridazin-3-yl]phenol]	238 nM	> 10000 nM
Cc1cc(C)c(-c2cc(C)c(N3CCO[C@@H]4CCN(C)C[C@@H]43)nn2)c(O)c1 [Example 434, 2-[6-[(4aS,8aR)-6-methyl-3,4a,5,7,8,8a-hexahydro-2H-pyrido[4,3-b][1,4]oxazin-4-yl]-5-methyl-pyridazin-3-yl]-3,5-dimethyl-phenol]	42 nM	> 10000 nM
Cc1cc(C)c(-c2ccc(N3CCCc4c(O)cccc43)nn2)c(O)c1 [Example 232, 1-[6-(2-hydroxy-4,6-dimethyl-phenyl)pyridazin-3-yl]-3,4-dihydro-2H-quinolin-5-ol]	502 nM	7630 nM
Cc1cc(C(F)(F)F)cc(O)c1-c1ccc(N2CCO[C@@H](CO)C2)nn1 [Example 266, 2-[6-[(2R)-2-(hydroxymethyl)morpholin-4-yl]pyridazin-3-yl]-3-methyl-5-(trifluoromethyl)phenol]	73 nM	> 10000 nM
CNC(=O)C[C@@H]1CN(c2ccc(-c3c(C)cc(C)cc3O)nn2)CCO1 (single isomer, unassigned) [Example 142]	360 nM	> 10000 nM

The remaining compounds from weak to strong by IC50 (NLRP3 inflammasome), led by results:

IC50 (NLRP3 inflammasome)	IC50 [1]	SMILES
42 nM	> 10000 nM	Cc1ccc(-c2nnc(N3CC[C@@H]4CCN(C)C[C@@H]43)cc2C)c(O)c1 (single isomer, unassigned) [Example 374]
34 nM	> 10000 nM	OC[C@@H]1CN(c2cc(C(F)F)c(-c3ccc(Cl)cc3O)nn2)CCO1 [Example 145, 5-chloro-2-[4-(difluoromethyl)-6-[(2S)-2-(hydroxymethyl)morpholin-4-yl]pyridazin-3-yl]phenol]
28 nM	> 10000 nM	Cc1cc(C)c(-c2ccc(N3C[C@H](CO)O[C@H](C)C3)nn2)c(O)c1 [Example 365, 2-[6-[(2R,6R)-2-(hydroxymethyl)-6-methyl-morpholin-4-yl]pyridazin-3-yl]-3,5-dimethyl-phenol]
21 nM	> 10000 nM	Cc1cc(C(F)(F)F)cc(O)c1-c1ccc(N2CCO[C@H]3CCNC[C@H]32)nn1 (single isomer, unassigned) [Example 251]
20 nM	> 10000 nM	Cc1cccc(O)c1-c1ccc(N2CCO[C@@H]3CCN(C)C[C@@H]32)nn1 [Example 354, 2-[6-[(4aS,8aR)-6-methyl-3,4a,5,7,8,8a-hexahydro-2H-pyrido[4,3-b][1,4]oxazin-4-yl]pyridazin-3-yl]-3-methyl-phenol]
14 nM	> 10000 nM	Cc1cc(C)c(-c2ccc(N3CCO[C@H]4CCNC[C@H]43)nn2)c(O)c1 (racemic) [Example 195, 3,5-dimethyl-2-[6-[rac-(4aR,8aS)-2,3,4a,5,6,7,8,8a-octahydropyrido[4,3-b][1,4]oxazin-4-yl]pyridazin-3-yl]phenol]
11 nM	> 10000 nM	CCc1cccc(O)c1-c1ccc(N2CCO[C@@H]3CCN(C)C[C@@H]32)nn1 [Example 358, 2-[6-[(4aS,8aR)-6-methyl-3,4a,5,7,8,8a-hexahydro-2H-pyrido[4,3-b][1,4]oxazin-4-yl]pyridazin-3-yl]-3-ethyl-phenol]
10 nM	> 10000 nM	Cc1cc(C)c(-c2ccc(N3CCOc4ccc(O)cc43)nn2)c(O)c1 [Example 162, 4-[6-(2-hydroxy-4,6-dimethyl-phenyl)pyridazin-3-yl]-2,3-dihydro-1,4-benzoxazin-6-ol]
3 nM	> 10000 nM	CCN1CC[C@H]2OCCN(c3cc(C(F)F)c(-c4ccc(C)cc4O)nn3)[C@H]2C1 [Example 323, 2-[6-[(4aS,8aR)-6-ethyl-3,4a,5,7,8,8a-hexahydro-2H-pyrido[4,3-b][1,4]oxazin-4-yl]-4-(difluoromethyl)pyridazin-3-yl]-5-methyl-phenol]
2 nM	> 10000 nM	CN1CC[C@H]2CCN(c3ccc(-c4c(O)cccc4C(F)(F)F)nn3)[C@H]2C1 (racemic) [Example 389, 2-[6-[rac-(3aS,7aR)-6-methyl-3,3a,4,5,7,7a-hexahydro-2H-pyrrolo[2,3-c]pyridin-1-yl]pyridazin-3-yl]-3-(trifluoromethyl)phenol]
2 nM	> 10000 nM	Cc1cc(C)c(-c2ccc(N3CCO[C@@H]4CCN(C)C[C@@H]43)nn2)c(O)c1 [Example 311, 2-[6-[(4aS,8aR)-6-methyl-3,4a,5,7,8,8a-hexahydro-2H-pyrido[4,3-b][1,4]oxazin-4-yl]pyridazin-3-yl]-3,5-dimethyl-phenol]
2 nM	> 10000 nM	CCN1CC[C@H]2OCCN(c3cc(C)c(-c4ccc(C(F)(F)F)cc4O)nn3)[C@H]2C1 [Example 436, 2-[6-[(4aS,8aR)-6-ethyl-3,4a,5,7,8,8a-hexahydro-2H-pyrido[4,3-b][1,4]oxazin-4-yl]-4-methyl-pyridazin-3-yl]-5-(trifluoromethyl)phenol]
1.1 nM	> 10000 nM	Cc1ccc(-c2nnc(N3CCO[C@@H]4CCN(C)C[C@@H]43)cc2C)c(O)c1 [Example 373, 2-[6-[(4aS,8aR)-6-methyl-3,4a,5,7,8,8a-hexahydro-2H-pyrido[4,3-b][1,4]oxazin-4-yl]-4-methyl-pyridazin-3-yl]-5-methyl-phenol]
1 nM	> 10000 nM	CCN1CC[C@H]2OCCN(c3cc(C)c(-c4ccc(Cl)cc4O)nn3)[C@H]2C1 [Example 437, 2-[6-[(4aS,8aR)-6-ethyl-3,4a,5,7,8,8a-hexahydro-2H-pyrido[4,3-b][1,4]oxazin-4-yl]-4-methyl-pyridazin-3-yl]-5-chloro-phenol]
1 nM	> 10000 nM	Cc1cc(C(F)(F)F)cc(O)c1-c1ccc(N2CCO[C@H]3CCN(C)C[C@H]32)nn1 (single isomer, unassigned) [Example 261]
0.48 nM	> 10000 nM	CCc1cccc(O)c1-c1ccc(N2CC[C@H]3CCN(C)C[C@H]32)nn1 (single isomer, unassigned) [Example 423]
0.4 nM	> 10000 nM	Cc1ccc(-c2nnc(N3CC[C@H]4CCN(C)C[C@H]43)cc2C)c(O)c1 (single isomer, unassigned) [Example 375]
